Experimental data published in patent publication US11214803B2, “Modulators of YAP1 expression” (Ionis Pharmaceuticals, Inc., priority 2019, dated 2022).
Marks after values point to notes of the source that are not given here. Strand notation (5' to 3'): a small letter for the sugar, then the base; units joined by * are phosphorothioate-linked, units joined directly phosphodiester-linked; [ ] holds rarer units or linkages, { } end groups; capitals alone tell only the bases. k = constrained ethyl (cEt); [5mC] = 5-methylcytosine; d = 2'-deoxy (DNA)

Test system: Yap1 mRNA
Experiment: Antisense inhibition of human Yap1 in A-431 cells by cEt gapmers, single dose (Example 4, RTS4814)
Format: cell-based
Settings: Table 14; A-431 cells, 5,000 cells per well, free uptake, 2,000 nM, approximately 48 hours; RTS4814; normalized to RIBOGREEN; Yap1 mRNA relative to untreated control; * = targets amplicon region of primer probe set
In short: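 A-431 cells took up 3-10-3 cEt gapmers (16-mer, full phosphorothioate, 5-methylcytosines) by free uptake at 2,000 nM for about 48 h. Yap1 mRNA was quantified by qRT-PCR, normalized to total RNA (RIBOGREEN), and reported as % of untreated control.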

Row | Substance | YAP1 (% UTC)
1 | 1074304 (antisense k[5mC]*kT*kG*d[5mC]*d[5mC]*dG*dA*dA*dG*d[5mC]*dA*dG*dT*kT*k[5mC]*kT) [Compound 1074304] | 109
2 | 1074656 (antisense kG*kA*k[5mC]*dT*dT*dA*dA*dT*dT*d[5mC]*dA*dA*dG*kA*kT*kT) [Compound 1074656] | 31
3 | 1075808 (kG*k[5mC]*kA*dA*dT*dA*dG*dA*dG*dT*dA*dA*d[5mC]*k[5mC]*kA*kG; antisense) [Compound 1075808] | 3
4 | 1074144 (antisense kA*kG*k[5mC]*dG*dG*d[5mC]*dG*dA*d[5mC]*dG*dG*d[5mC]*dT*kG*k[5mC]*kG) [Compound 1074144] | 92
5 | 1075680 (kA*kT*kT*dA*dT*dT*dA*d[5mC]*d[5mC]*d[5mC]*d[5mC]*dT*dT*k[5mC]*kT*kA; antisense) [Compound 1075680] | 73
6 | 1074208 (antisense kG*kT*kG*d[5mC]*dA*d[5mC]*dG*dA*dT*d[5mC]*dT*dG*dA*kT*kG*k[5mC]) [Compound 1074208] | 96
7 | 1076064 (kT*kA*kT*dG*dA*dA*d[5mC]*dA*dA*dT*dG*dT*dA*k[5mC]*kT*k[5mC]; antisense) [Compound 1076064] | 5
8 | 1074336 (antisense k[5mC]*k[5mC]*kA*dG*dT*dG*dT*dT*dG*dG*dT*dA*dA*k[5mC]*kT*kG) [Compound 1074336] | 97
9 | 1074848 (kG*kT*kT*dA*dT*dG*dA*dT*dA*dG*dG*d[5mC]*dA*k[5mC]*kA*k[5mC]; antisense) [Compound 1074848] | 11

Same assay, conditions: Table 15; A-431 cells, 5,000 cells per well, free uptake, 2,000 nM, approximately 48 hours; RTS4814; normalized to RIBOGREEN; Yap1 mRNA relative to untreated control; * = targets amplicon region of primer probe set

Row | Substance | YAP1 (% UTC)
10 | 1075585 (kA*kA*kA*dT*dA*dA*dT*dT*dG*dA*d[5mC]*d[5mC]*dT*kA*kG*k[5mC]; antisense) [Compound 1075585] | 52
11 | 1075617 (kT*kA*kA*dG*dA*dA*d[5mC]*dG*dA*d[5mC]*dA*dT*dA*kT*kG*k[5mC]; antisense) [Compound 1075617] | 27
12 | 1076257 (k[5mC]*kT*kA*dA*dG*dA*dA*dA*d[5mC]*dT*d[5mC]*dA*dT*kA*kG*kT; antisense) [Compound 1076257] | 54
13 | 1074657 (antisense kT*k[5mC]*k[5mC]*d[5mC]*d[5mC]*d[5mC]*d[5mC]*dA*dG*dA*d[5mC]*dT*dT*kA*kA*kT) [Compound 1074657] | 59
14 | 1075457 (antisense kA*kG*kT*dA*dA*dT*dA*dT*dG*dT*dA*d[5mC]*dA*kT*kG*kG) [Compound 1075457] | 5
15 | 1075521 (kA*kA*kA*dT*d[5mC]*dG*dA*dG*dG*d[5mC]*dG*dA*dA*kT*k[5mC]*kT; antisense) [Compound 1075521] | 65
16 | 1075041 (antisense kG*kA*kT*dT*dA*dT*dA*dA*dA*dG*dA*dG*dG*k[5mC]*kT*k[5mC]) [Compound 1075041] | 5

Same assay, conditions: Table 16; A-431 cells, 5,000 cells per well, free uptake, 2,000 nM, approximately 48 hours; RTS4814; normalized to RIBOGREEN; Yap1 mRNA relative to untreated control cells

Row | Substance | YAP1 (% UTC)
17 | 1075458 (antisense k[5mC]*k[5mC]*kA*d[5mC]*dA*dA*dT*dA*dT*dA*d[5mC]*dT*d[5mC]*k[5mC]*kA*kA) [Compound 1075458] | 7
18 | 1074114 (kG*kA*kA*d[5mC]*dT*dT*dT*dT*dT*d[5mC]*d[5mC]*d[5mC]*dT*k[5mC]*k[5mC]*kA; antisense) [Compound 1074114] | 30
19 | 1075746 (kG*kA*kT*dT*dA*dA*d[5mC]*d[5mC]*d[5mC]*dA*dG*dT*dA*kG*kA*kG; antisense) [Compound 1075746] | 28
20 | 1074690 (antisense k[5mC]*k[5mC]*kT*d[5mC]*d[5mC]*d[5mC]*d[5mC]*d[5mC]*dT*dA*dA*dG*d[5mC]*kT*kA*kA) [Compound 1074690] | 81
21 | 1075490 (antisense k[5mC]*kA*kT*dA*dT*dA*d[5mC]*dG*d[5mC]*dA*dA*dT*dT*kA*kG*kT) [Compound 1075490] | 27
22 | 1074402 (antisense kT*kT*kA*dT*dG*dG*dA*dA*dA*dT*dT*dT*d[5mC]*k[5mC]*kG*kG) [Compound 1074402] | 25
23 | 1074658 (antisense kG*kG*k[5mC]*d[5mC]*dA*dT*dT*dT*d[5mC]*d[5mC]*d[5mC]*d[5mC]*d[5mC]*k[5mC]*kA*kG) [Compound 1074658] | 89
24 | 1075234 (antisense kG*kT*kA*dA*dA*dT*dA*d[5mC]*dT*d[5mC]*dT*dA*dG*kT*kT*k[5mC]) [Compound 1075234] | 22
25 | 1075970 (kG*k[5mC]*kT*dT*dA*dA*dA*dA*dG*dG*dA*d[5mC]*dA*kG*kT*kA; antisense) [Compound 1075970] | 34

Same assay, conditions: Table 17; A-431 cells, 5,000 cells per well, free uptake, 2,000 nM, approximately 48 hours; RTS4814; normalized to RIBOGREEN; Yap1 mRNA relative to untreated control cells

Row | Substance | YAP1 (% UTC)
26 | 1075747 (kA*kT*kT*dT*dA*dG*d[5mC]*dA*dT*dG*dA*dT*dT*kA*kA*k[5mC]; antisense) [Compound 1075747] | 43
27 | 1074339 (antisense kA*k[5mC]*kT*dG*dG*dA*dT*dT*dT*dT*dG*dA*dG*kT*k[5mC]*k[5mC]) [Compound 1074339] | 31
28 | 1075203 (antisense kT*kA*kA*dT*dT*dA*dT*dA*dT*dA*dA*dG*dG*k[5mC]*kT*kG) [Compound 1075203] | 68
29 | 1076163 (kG*kA*kT*dA*dT*dA*dA*dG*dT*dT*dA*d[5mC]*d[5mC]*kA*kA*kT; antisense) [Compound 1076163] | 16
30 | 1075395 (kA*kT*kG*dA*dA*dT*dA*dA*dG*dT*dA*dT*dG*k[5mC]*k[5mC]*kA; antisense) [Compound 1075395] | 4

Same assay, conditions: Yap1 mRNA remaining as percent of untreated control; 3-10-3 cEt gapmers; A-431 cells; Table 36

Row | Substance | YAP1 (% UTC)
31 | 1075190 (kT*kA*kT*d[5mC]*dA*dA*dG*dG*dA*dT*dT*d[5mC]*dA*kG*kT*kA; antisense) [compound 1075190] | 45
32 | 1076246 (kT*k[5mC]*k[5mC]*dT*dA*dA*dA*dA*dA*dA*d[5mC]*dT*dA*kG*kT*kG; antisense) [compound 1076246] | 75
33 | 1075382 (antisense kA*kT*kT*dA*dT*dT*dA*d[5mC]*d[5mC]*d[5mC]*dT*dA*d[5mC]*kT*k[5mC]*kA) [compound 1075382] | 33
34 | 1074966 (antisense kA*kT*kT*dG*dA*dA*dG*dT*dG*dT*dT*dT*dA*kG*kG*k[5mC]) [compound 1074966] | 9
35 | 1074742 (kA*kA*kA*dG*dG*dA*d[5mC]*dT*d[5mC]*dT*dT*dA*dG*kG*kT*k[5mC]; antisense) [compound 1074742] | 25
36 | 1076182 (k[5mC]*kT*kA*dT*dA*dA*dT*dT*dA*dG*d[5mC]*d[5mC]*dA*kA*k[5mC]*k[5mC]; antisense) [compound 1076182] | 15
37 | 1075894 (antisense k[5mC]*kT*k[5mC]*dG*dA*dA*dA*dG*d[5mC]*dT*dG*dG*dG*k[5mC]*k[5mC]*k[5mC]) [compound 1075894] | 100

Same assay, conditions: Yap1 mRNA remaining as percent of untreated control; 3-10-3 cEt gapmers; A-431 cells; Table 37

Row | Substance | YAP1 (% UTC)
38 | 1076503 (kA*kA*kT*dT*dA*d[5mC]*d[5mC]*d[5mC]*d[5mC]*dT*dG*dT*dG*kA*kG*kG; antisense) [compound 1076503] | 77 % UTC
39 | 1076087 (k[5mC]*kA*kA*dA*d[5mC]*dT*dA*dA*dT*dA*dG*dG*d[5mC]*k[5mC]*kA*kT; antisense) [compound 1076087] | 10 % UTC
40 | 1076567 (kG*kA*kT*dT*dA*d[5mC]*dA*dG*dT*dG*dA*d[5mC]*dA*kT*kT*k[5mC]; antisense) [compound 1076567] | 10 % UTC
41 | 1075703 (kG*kG*kA*dG*dA*dA*dA*dG*d[5mC]*d[5mC]*dA*dT*d[5mC]*kA*kA*kG; antisense) [compound 1075703] | 10 % UTC
42 | 1074967 (antisense kG*kA*k[5mC]*dA*dA*dA*dT*dT*dG*dA*dA*dG*dT*kG*kT*kT) [compound 1074967] | 116 % UTC
43 | 1074455 (k[5mC]*kA*kT*dT*dA*dT*dG*dT*dG*dA*d[5mC]*dT*dA*kA*kT*kG; antisense) [compound 1074455] | 67 % UTC
44 | 1075895 (antisense kA*k[5mC]*kT*d[5mC]*dG*dA*dA*dA*dG*d[5mC]*dT*dG*dG*kG*k[5mC]*k[5mC]) [compound 1075895] | 38 % UTC
45 | 1074615 (DNA kT*kT*k[5mC]*dA*dT*dA*dG*d[5mC]*dT*dT*dA*dT*dA*kT*kT*kG; antisense) [compound 1074615] | 8 % UTC
46 | 1074423 (k[5mC]*kA*kA*dA*d[5mC]*dA*dG*dG*d[5mC]*dT*d[5mC]*dA*d[5mC]*kT*kT*k[5mC]; antisense) [compound 1074423] | 4* % UTC
